Values of other authors as cited in patent US20220061318A1, “ANTIMICROBIAL PREVENTIVE NETTING” (University of Washington, priority 2020, published 2022).

Details: photosensitizer, singlet oxygen generation; riboflavin value depends on the test conditions

| SMILES | quantum yield |
| --- | --- |
| O=C1OC2(c3ccccc31)c1cc(I)c(O)c(I)c1Oc1c2cc(I)c(O)c1I [erythrosine] | around 0.6 |
| CN(C)c1ccc2nc3ccc(=[N+](C)C)cc-3sc2c1 [Methylene blue, methylene blue] | 0.52 |
